Experimental data taken from PubChem BioAssay AID1033 (Sanford-Burnham Center for Chemical Genomics, 2008).
Activity calls are given as the source filed them. No rule for the calls is given here.

Biological target: Chaperone protein DnaK (Escherichia coli (strain K12)) (UniProt P0A6Y8)
Assay: E. coli DnaK SBD ligand binding – biophysical, NMR, chaperone (AID 1033)
Details: Purified DnaK SBD

Chaperone protein DnaK (Escherichia coli (strain K12)), sequence (P0A6Y8 whole entry, looked up): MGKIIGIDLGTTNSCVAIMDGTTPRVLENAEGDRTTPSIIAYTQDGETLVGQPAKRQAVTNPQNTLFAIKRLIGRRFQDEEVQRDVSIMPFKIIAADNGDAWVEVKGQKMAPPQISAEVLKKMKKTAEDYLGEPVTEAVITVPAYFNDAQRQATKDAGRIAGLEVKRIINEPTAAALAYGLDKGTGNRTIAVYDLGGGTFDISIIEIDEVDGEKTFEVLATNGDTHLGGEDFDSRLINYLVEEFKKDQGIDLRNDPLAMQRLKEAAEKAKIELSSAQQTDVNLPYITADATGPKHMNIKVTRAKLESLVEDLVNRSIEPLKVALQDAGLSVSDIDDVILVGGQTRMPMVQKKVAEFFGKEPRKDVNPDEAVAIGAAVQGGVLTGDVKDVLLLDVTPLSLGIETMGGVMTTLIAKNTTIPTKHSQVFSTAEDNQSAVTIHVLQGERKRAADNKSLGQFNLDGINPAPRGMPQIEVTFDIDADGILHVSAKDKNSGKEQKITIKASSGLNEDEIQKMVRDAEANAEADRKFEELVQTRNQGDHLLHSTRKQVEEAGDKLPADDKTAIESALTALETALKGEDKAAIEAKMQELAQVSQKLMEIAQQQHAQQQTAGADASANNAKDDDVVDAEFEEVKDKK

Structure (SMILES): Cc1onc(-c2ccccc2)c1C(=O)Nc1ccncc1
- Kd: > 4 mM (inactive)

Structure (SMILES): COc1ccc(C)cc1S(N)(=O)=O
- Kd: > 4 mM (inactive)

Structure (SMILES): O=C1CCCc2c1nc(-c1ccccc1)n2O
- Kd: > 4 mM (inactive)

Structure (SMILES): Nc1ccccc1C(=O)CC(N)C(=O)O (stereo not drawn)
- Kd: > 4 mM (inactive)

Structure (SMILES): COC(=O)c1c[nH]c2ccccc12
- Kd: > 4 mM (inactive)

Structure (SMILES): CC(C1OC(C)(C)C(O)C1O)[C@@H]1CC[C@]2(C)C3=CCC4C(C)(C)C(=O)CC[C@]4(C)C3CC[C@@]12C (stereo partly drawn)
- Kd: > 4 mM (inactive)

Structure (SMILES): Cc1nc(N2CCOCC2)[nH]c(=O)c1C
- Kd: > 4 mM (inactive)

Structure (SMILES): CCOC(=O)c1c(C)nc2cc(C)ccn12
- Kd: > 4 mM (inactive)

Structure (SMILES): NC(=O)CSc1nnnn1-c1ccccc1
- Kd: > 4 mM (inactive)

Structure (SMILES): CCCCCCCCCCCC[C@H](C(=O)O)[C@@H](C)C(=O)O
- Kd: > 4 mM (inactive)

Structure (SMILES): O=C(Nc1ccon1)c1cccc(C(F)(F)F)c1
- Kd: > 4 mM (inactive)

Structure (SMILES): CC(=O)Nc1cc2c(cc1C(=O)C(C)C)OCCO2
- Kd: > 4 mM (inactive)

Structure (SMILES): C[C@]12CCC(=O)C=C1CCC1C2C(=O)C[C@@]2(C)C1CC[C@]2(O)C(=O)CO (stereo partly drawn)
- Kd: > 4 mM (inactive)

Structure (SMILES): Nc1ncnc(NC2CCS(=O)(=O)C2)c1[N+](=O)[O-] (stereo not drawn)
- Kd: > 4 mM (inactive)

Structure (SMILES): Cc1nc2ccc(C(=O)N3CCSCC3)cc2s1
- Kd: > 4 mM (inactive)

Structure (SMILES): O=S(=O)(Nc1ccc2c(c1)OCCO2)c1cccs1
- Kd: > 4 mM (inactive)

Structure (SMILES): O=C(O[C@@H]1Cc2c(O)cc(O)cc2O[C@@H]1c1cc(=O)c(O)c2c(O)c(O)cc([C@H]3Oc4cc(O)cc(O)c4C[C@H]3O)c2c1)c1cc(O)c(O)c(O)c1
- Kd: > 4 mM (inactive)

Structure (SMILES): C=C1C([C@]2(C)C(CC(=O)OC)[C@@](C)(COC(C)=O)OC(=O)C[C@@H]2OC(C)=O)[C@@H](OC=O)[C@H](OC(=O)C(O)C(C)CC)[C@@]2(C)[C@H](c3ccoc3)CC(=O)C12O (stereo partly drawn)
- Kd: > 4 mM (inactive)

Structure (SMILES): Cc1ccc2c(c1)CCCN2C(=O)c1ccncc1
- Kd: > 4 mM (inactive)

Structure (SMILES): CC1(C)CC(=O)c2cnn(-c3nc4ccccc4[nH]3)c2C1
- Kd: > 4 mM (inactive)

Structure (SMILES): CC(C)c1c(O)c(-c2cc3c(c(C(C)C)c2O)CCC2C(C)(C)CCC[C@]32C)cc2c1CCC1C(C)(C)CCC[C@]21C (stereo partly drawn)
- Kd: > 4 mM (inactive)

Structure (SMILES): CC(C)=CCc1c(O)cc2oc(C)cc(=O)c2c1O
- Kd: > 4 mM (inactive)

Structure (SMILES): CN1CCN(C(=O)c2ccccc2C(=O)O)CC1
- Kd: > 4 mM (inactive)

Structure (SMILES): Oc1ccccc1C(=S)N1CCCCCC1
- Kd: > 4 mM (inactive)

Structure (SMILES): c1ccc2[nH]c(NCCN3CCOCC3)nc2c1
- Kd: > 4 mM (inactive)

Structure (SMILES): CC(=O)Nc1cccc(-c2nnc3n2CC(C)S3)c1 (stereo not drawn)
- Kd: > 4 mM (inactive)

Structure (SMILES): C/C=C(\C)C(=O)OC1[C@@H]2C=C3C(CC[C@]4(C)C3CC(=O)O[C@H]4c3ccoc3)C(C)(C2=O)[C@@H](C(O)C(=O)OC)C1(C)C (stereo partly drawn)
- Kd: > 4 mM (inactive)

Structure (SMILES): O=S1(=O)CCC(NCCO)C1 (stereo not drawn)
- Kd: > 4 mM (inactive)

Structure (SMILES): O=C(O)Cc1n[nH]c(=O)c2ccccc12
- Kd: > 4 mM (inactive)

Structure (SMILES): c1ccc(-c2noc(-c3ccc4c(c3)OCO4)n2)nc1
- Kd: > 4 mM (inactive)

Structure (SMILES): O=C1NCCCC1C(=O)N1CCCCC1 (stereo not drawn)
- Kd: > 4 mM (inactive)

Structure (SMILES): Cc1ccc(NC(=O)CN2C(=O)CSC2=O)cc1
- Kd: > 4 mM (inactive)

Structure (SMILES): COc1ccccc1C(=O)Nc1ccccn1
- Kd: > 4 mM (inactive)

Structure (SMILES): [O-][n+]1onc2c1CCc1c-2nc(-c2ccccc2)n1O
- Kd: > 4 mM (inactive)

Structure (SMILES): CS(C)=C1C(=O)NC(=O)N(Cc2ccc(F)cc2)C1=O
- Kd: > 4 mM (inactive)

Structure (SMILES): O=C(Nc1nc2c(s1)CCCC2)c1cccnc1
- Kd: > 4 mM (inactive)

Structure (SMILES): O=NN1C(=O)c2ccccc2C1=O
- Kd: > 4 mM (inactive)

Structure (SMILES): Cc1noc(C)c1C(=O)NCc1cccs1
- Kd: > 4 mM (inactive)

Structure (SMILES): O=C(O)CS(=O)(=O)c1ccccc1
- Kd: > 4 mM (inactive)

Structure (SMILES): c1ccc(Cc2nn3c(-c4ccncc4)nnc3s2)cc1
- Kd: > 4 mM (inactive)

Structure (SMILES): O=C(O)c1ccccc1N1CCOCC1
- Kd: > 4 mM (inactive)

Structure (SMILES): CC(=O)Nc1ccc(C(=O)n2nc(C)cc2C)cc1
- Kd: > 4 mM (inactive)

Structure (SMILES): CCC1(CC)C(=O)N=C(N)NC1=O
- Kd: > 4 mM (inactive)
